Reference: patent US10351519B2, “Sulfamate derivative compounds, processes for preparing them and their uses” (BIO-PHARM SOLUTIONS CO., LTD., priority 2016, dated 2019)

Key:
Type in all cases: in vivo
SD rats [1] = assay: Anti-epilepsy activity, scPTZ test, rat; conditions: for ED50: Rattus norvegicus, ip
Description: (§1) In this experiment, each test compound sample was formulated as described in Biological Experimental Example I, and administered intraperitoneally to the test animals (mice; ICR or Rat; SD); Experimental animals, male ICR mice and male SD rats, were purchased from OrientBio or Nara biotech, Korea, and housed 4-5 mice per a cage for 4-5 days. The range of mice body weight was used between 19 and 26 grams and range of rats body weight was used between 100 and 130 grams. After Peak time (0.5, 1, 2 and 4 hr) from the administration, PTZ (Pentylenetetrazol) was administered subcutaneously in the concentration capable of inducing 97% intermittent convulsions (mice: 76-110 mg/kg·bw, 10 μl/g, or rats: 79-110 mg/kg·bw, 2 μl/g). If clonic seizure was not observed for at least 30 minutes in the PTZ administered animal, it can be considered that the test compound has anti-epilepsy activity. The median effective dose (ED50) is determined using 6 animals per a concentration (total three different concen-trations), and calculated by Litchfield and Wicoxon log-probit method which is a dose-response relationship.

Sprague-Dawley rats [2] = assay: Lithium-pilocarpine induced epilepsy test, prevention; conditions: for ED50: Rattus norvegicus, ip, read-out: Lithium pilocarpine model (pre) ED50; for Lithium pilocarpine model (pre) peak time: i.p.
Method: Male Sprague-Dawley rats (purchased from Orient Bio Inc. Korea) of body weight 175-200 grams were used for these studies and 3 rats per cage were housed for 4-5 days. On the day prior to SE, rats received 127 mg/kg lithium chloride (Sigma, St. Louis, Mo., U.S.A.) intraperitoneally (i.p.). Approximately 18-20 h following this treatment, rats were given an i.p. injection of CD97 dose (30-43 mg/kg) pilocarpine (Sigma). An i.p. injection of 2 mg/kg methyl-scopolamine (Sigma) was administered 30 min prior to pilocarpine to block the effects of the muscarinic agonist on peripheral cholinergic receptors. Test drugs were dissolved in 30% PEG 400 or 20% tween80 (Sigma).
The drugs were administered intraperitoneally (i.p.) in a volume of 2 ul/g body weight. Pharmacological effects of all of the test materials were evaluated to compare test groups (n=6) with a control group (n=6). Control group was administered vehicle only. The efficacy was measured 0.5, 1, 2, or 4 hours after the administration of the test material. The time point that the most animals were protected was defined as peak time and the ED50 was determined at peak time. The animals were then transferred to observation cages and observed continuously for 90 min. Seizure was elicited in approximately 95% of the control group. Protection was defined as complete absence of seizure grade 3-5 (Racine scale; Racine, 1972) over the 90-min observation period. The effective dose of the compound necessary to protect 50% of the animals against seizures compared to controls (i.e. ED50) was determined by a curve fitting program (Excel 2007, Microsoft).

SD rats [3] = assay: Anti-epilepsy activity, MES test, rat; conditions: for ED50: Rattus norvegicus, po
Method: In the MES test (Ref., G. Villetti et al. Neuropharmacology 40 (2001) 866-878), an electrical stimulus (mice: 50 mA, 60 Hz, 0.2 sec, and rats: 150 mA, 60 Hz, 0.2 sec in the test animal) supplied by an 11A Shocker (IITC Life Science Company) was delivered through corneal electrodes. All mice or rats assigned to any electroshock at peak time were treated with each test compound sample which was dissolved in 30% PEG 400 or 20% tween 80 prepared by saline solvent applied orally before the test. […] Three doses of the test sample were administered orally to 9-18 animals (3-6 mice per dose) for evaluating the respective doses at which 50% of the animals were protected from seizure (ED50). The ED50 value (median effective dose) was calculated by Litchfield and Wicoxon log-probit method which is a dose-response relationship. Experimental animals, male ICR mice and male SD rats, were purchased from OrientBio, Samtako, or Nara Biotech, Korea, and housed in cages (4-5 mice or 3 rats per cage) for 4-5 days. The range of mice body weight was between 19 and 25 grams and range of rats body weight was between 100 and 130 grams.

Sprague-Dawley rats [4] = assay: Antiallodynic activity on Complete Freund's Adjuvant (CFA)-induced inflammatory pain model; conditions: intraperitoneally; for response vs control in vivo at 50 mg/kg / ED50: Rattus norvegicus, ip; for response vs control in vivo at 50 mg/kg: read-out: CFA-induced pain model efficacy %; for ED50: at peak time
ICR mice = assay: Anti-epilepsy activity, scPTZ test, mouse; conditions: for ED50: ip
Description: as §1

COCO[C@H](c1ccccc1Cl)[C@@H](C)OS(N)(=O)=O [Example 70, (1R, 2R)-1-(2-chlorophenyl)-1-(methoxymethoxy)propan-2-yl sulfamate]
scPTZ test (ip) Peak time (SD rats [1]): (1 h)
ED50 (SD rats [1]): 36 mg/kg
ED50 (Sprague-Dawley rats [2]): 100 mg/kg
Lithium pilocarpine model (pre) peak time (Sprague-Dawley rats [2]): (0.5 h)
MES test (po) Peak time (SD rats [3]): (1 h)
ED50 (SD rats [3]): 46.6 mg/kg
response vs control in vivo at 50 mg/kg (Sprague-Dawley rats [4]): 23.7%
CFA-induced pain model Peak Time (Sprague-Dawley rats [4]): 0.5 h
scPTZ test (ip) Peak time (ICR mice): 2 h
ED50 (ICR mice): 50.2 mg/kg

C[C@@H](OS(N)(=O)=O)[C@H](O)c1c(Cl)cccc1Cl [Example 8, (1R, 2R)-1-(2,6-dichlorophenyl)-1-hydroxypropan-2-yl sulfamate]
scPTZ test (ip) Peak time (SD rats [1]): (1 h)
ED50 (SD rats [1]): 15.3 mg/kg
ED50 (Sprague-Dawley rats [2]): 29.3 mg/kg
Lithium pilocarpine model (pre) peak time (Sprague-Dawley rats [2]): (2 h)
MES test (po) Peak time (SD rats [3]): (1 h)
ED50 (SD rats [3]): 24 mg/kg
ED50 (Sprague-Dawley rats [4]): 52.7 mg/kg
CFA-induced pain model Peak Time (Sprague-Dawley rats [4]): 0.5 h
scPTZ test (ip) Peak time (ICR mice): 1 h
ED50 (ICR mice): 13.5 mg/kg

C[C@@H](OS(N)(=O)=O)[C@H](O)c1ccccc1Cl [Example 2, (1R, 2R)-1-(2-chlorophenyl)-1-hydroxypropan-2-yl sulfamate]
scPTZ test (ip) Peak time (SD rats [1]): 1 h
scPTZ test (ip) efficacy % (SD rats [1]; 40 mg/kg): 33.3%
MES test (po) Peak time (SD rats [3]): (2 h)
ED50 (SD rats [3]): 5 mg/kg
response vs control in vivo at 50 mg/kg (Sprague-Dawley rats [4]): 23%
CFA-induced pain model Peak Time (Sprague-Dawley rats [4]): 1 h
scPTZ test (ip) Peak time (ICR mice): 1 h
ED50 (ICR mice): 18.2 mg/kg

C[C@H](OS(N)(=O)=O)[C@@H](O)c1c(Cl)cccc1Cl [Example 7, (1S, 2S)-1-(2,6-dichlorophenyl)-1-hydroxypropan-2-yl sulfamate]
scPTZ test (ip) Peak time (SD rats [1]): (0.5 h)
ED50 (SD rats [1]): 10 mg/kg
ED50 (Sprague-Dawley rats [2]): 23.3 mg/kg
Lithium pilocarpine model (pre) peak time (Sprague-Dawley rats [2]): (0.5 h)
MES test (po) Peak time (SD rats [3]): (2 h)
ED50 (SD rats [3]): 23.5 mg/kg
ED50 (Sprague-Dawley rats [4]): 31.9 mg/kg
CFA-induced pain model Peak Time (Sprague-Dawley rats [4]): 1 h
scPTZ test (ip) Peak time (ICR mice): 0.5 h
ED50 (ICR mice): 8.6 mg/kg
